Values of other authors as cited in patent US10874098B2, “Organ preservation composition” (TX Innovations B.V., priority 2015, dated 2020).

Legend:
[1] = tested on: lung ischemia-reperfusion injury after lung transplantation; settings: intraperitoneal treatment of the donor animal three days before harvesting

| Molecule | stability in aqueous solutions | preservation of the transplanted lung [1] |
| --- | --- | --- |
| C[C@H](N)C(=O)O [L-alanine] | spontaneously degrade |  |
| NCCS(=O)(=O)O [taurine] |  | preservation of the transplanted lung in respect to histopathological and biochemical findings |
| L-alanine-L-glutamine | more stable in aqueous solutions and does not spontaneously degrade |  |
